The numbers were not newly measured in US20160279057A1, “Azelastine Formulations For Intranasal Nebulization And Irrigation” (CMPD LICENSING, LLC, priority 2015, published 2016), which cites them from elsewhere.

The structures appear in SMILES notation. Counter-ions that a name gives are not always drawn.

As for `CN1CCCC(n2nc(Cc3ccc(Cl)cc3)c3ccccc3c2=O)CC1` (stereo not drawn) [Azelastine hydrochloride, azelastine hydrochloride], the solubility in ethanol result (ethanol) is given as “slightly soluble”. Moreover, the solubility in glycerin entry (glycerin) is reported as “slightly soluble”. Further, under “methanol”, the solubility in methanol entry is “sparingly soluble”. Also, the solubility in octanol result (octanol) is on record as “slightly soluble”. Further, the “solubility in propylene glycol” value (propylene glycol) is “sparingly soluble”. For the same molecule, under “water”, the solubility in water result is “sparingly soluble”.
